Key:
[1] = target: T1, human full length PIK3KA Wild-type (p110α/p85α complex) (Homo sapiens, UniProt P42336); test: PI3K-alpha kinase (PIK3CA) biochemical activity, wild-type, ADP-Glo; settings: PI3K-α (PIK3CA) biochemical
T1 construct: Recombinant, catalytically active human full length PIK3KA Wild-type and H1047R mutant were purchased as 1:1 complex; 6xHis (N); purchased EMD Millipore Sigma 14-602M
From the text: (§1) PI3K-Alpha Kinase (PIK3CA) Activity, Wild-Type and H1047R Mutant and Determining IC50 Values for Inhibitors
(§2) Recombinant, catalytically active human full length PIK3KA Wild-type and H1047R mutant were purchased as 1:1 complex of N-terminal 6× his tagged p110α (catalytic) and untagged p85α (regulatory subunit) from EMD Millipore Sigma (cat. no. 14-602M and 14-792M, respectively). PIP2diC8 (Avanti Polar Lipids Inc., cat. no. 850185) or Soy PI (Avanti Polar Lipids Inc., cat. No. 840044P) was used as lipid substrate. PIP2diC8 or PI lyophilized powder was dissolved in milliQ water to a concentration of 1 mM just before use. 10 mM stock compounds in DMSO were serially diluted 1:3 to generate a 10-point curve and plated using an acoustic liquid handler system (Echo 550 series instrument, Labcyte). A 10× intermediate compound plate (200 uM starting compound concentration and 10% DMSO) was prepared before starting the reaction. A typical reaction mixture (50 uL) comprised 40 mM HEPES buffer, pH 7.4, 25 mM MgCl2, 0.01% v/v triton-X-100, 1% v/v DMSO, 20 mM NaCl, 1-5 nM WT or H1047R PI3K protein, 20 uM ATP, and 50 uM PIP2diC8 or Soy PI. 1% DMSO buffer alone without test compound was employed as MAX control (full activity in the absence of any inhibitor), and no enzyme control was used to determine the level of background Adenosine 5′-diphosphate (ADP) (MIN control). First, Wild-type (WT) and H1047R mutant protein in kinase buffer with all components except ATP were incubated with or without compound at 27° C. for 1 h. After the pre-incubation, the reaction was initiated by the addition of 20 uL of 50 uM ATP (20 uM final concentration). The reaction was allowed to proceed until about 10% conversion of ATP (2 uM ADP) at 27° C. After that time, 5 uL of reaction was mixed with 5 uL of ADP-Kinase Glo Reagent (ADP-Glo Kinase assay kit, Promega cat. no. V9102) supplemented with MgCl2 10 mM to stop the reaction and deplete the remaining ATP for 40 min at room temperature. Then, 10 uL of Kinase Detection Reagent (ADP-Glo Kinase assay kit, Promega cat. no. V9102) was added to simultaneously convert ADP to ATP and allow the newly synthesized ATP to be measured using a luciferase/luciferin reaction. After 30 min at room temperature the light generated was measured using a luminometer (EnVision plate reader, Perkin Elmer). Process data through Genedata-Screener tool. Relative IC50 values are determined using luminescence units by calculating percent inhibition with respect to on-plate “MIN” and “MAX” controls. Data was analyzed using a 4-parameter nonlinear logistic equation (four-parameter logistic concentration-response curve): Y=bot+[(top−bot)/1+(x/IC50)slope] where Y=% inhibition, X=concentration yielding y % inhibition, Bottom=minimum value of y attained by curve, Top=maximum value of y attained by curve and Slope=steepness of curve at IC50. % Inh=[(median Max−x/median Max−median Min)]·100 IC50: concentration of compound that reduces a given response (ligand binding, enzyme response) by 50%. IC50 relative: concentration giving half the compound's maximum response.
(§3) For IC50 values shown in Table A, “A” means IC50<0.5 μM; “B” means IC50 ranging between 0.5 μM and 1.0 μM; “C” means IC50 ranging between 1 μM and 5 μM; “D” means IC50 ranging between 5 μM and 10 μM; “E” means IC50>10 μM.

[2] = target: T2, human full length PIK3KA H1047R mutant (p110α/p85α complex) (Homo sapiens, UniProt P42336, H1047R); test: PI3K-alpha kinase (PIK3CA) biochemical activity, H1047R mutant, ADP-Glo; settings: PI3K-α (PIK3CA) biochemical, H1047R mutant
T2 construct: Recombinant, catalytically active human full length PIK3KA Wild-type and H1047R mutant were purchased as 1:1 complex; 6xHis (N); purchased EMD Millipore Sigma 14-792M
From the text: as §1, §2, §3

[3] = PIP2diC8 lipid substrate (footnote 1)

T2 sequence (P42336 whole entry H1047R): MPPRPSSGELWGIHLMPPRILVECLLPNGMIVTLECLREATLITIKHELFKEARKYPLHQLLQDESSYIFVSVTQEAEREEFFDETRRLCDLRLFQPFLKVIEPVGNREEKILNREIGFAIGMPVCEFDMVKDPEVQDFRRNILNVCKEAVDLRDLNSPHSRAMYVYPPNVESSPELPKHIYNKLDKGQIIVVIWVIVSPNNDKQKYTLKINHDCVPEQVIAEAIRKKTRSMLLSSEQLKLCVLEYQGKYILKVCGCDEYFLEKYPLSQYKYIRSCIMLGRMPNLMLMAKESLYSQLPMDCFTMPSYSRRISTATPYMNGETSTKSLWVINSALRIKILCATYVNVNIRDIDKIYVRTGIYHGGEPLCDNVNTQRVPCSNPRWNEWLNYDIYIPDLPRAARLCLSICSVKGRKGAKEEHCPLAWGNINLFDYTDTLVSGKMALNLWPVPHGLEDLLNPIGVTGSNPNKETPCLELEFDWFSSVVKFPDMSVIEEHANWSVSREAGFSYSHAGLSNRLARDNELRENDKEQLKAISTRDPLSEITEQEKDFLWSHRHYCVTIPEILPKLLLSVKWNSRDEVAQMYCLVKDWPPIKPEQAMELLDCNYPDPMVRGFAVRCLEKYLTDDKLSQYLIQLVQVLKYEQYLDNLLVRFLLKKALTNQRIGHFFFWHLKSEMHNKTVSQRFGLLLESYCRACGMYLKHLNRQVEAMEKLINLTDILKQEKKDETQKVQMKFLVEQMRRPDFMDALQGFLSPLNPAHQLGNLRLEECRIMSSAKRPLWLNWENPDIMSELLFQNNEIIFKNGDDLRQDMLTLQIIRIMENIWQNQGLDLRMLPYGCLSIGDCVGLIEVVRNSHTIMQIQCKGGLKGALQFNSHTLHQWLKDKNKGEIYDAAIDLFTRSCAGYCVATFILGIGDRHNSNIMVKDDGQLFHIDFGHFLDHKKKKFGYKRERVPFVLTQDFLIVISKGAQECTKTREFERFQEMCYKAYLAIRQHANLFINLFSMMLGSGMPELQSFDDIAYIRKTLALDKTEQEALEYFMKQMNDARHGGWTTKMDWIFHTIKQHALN
T2 sequence (P27986 whole entry partner): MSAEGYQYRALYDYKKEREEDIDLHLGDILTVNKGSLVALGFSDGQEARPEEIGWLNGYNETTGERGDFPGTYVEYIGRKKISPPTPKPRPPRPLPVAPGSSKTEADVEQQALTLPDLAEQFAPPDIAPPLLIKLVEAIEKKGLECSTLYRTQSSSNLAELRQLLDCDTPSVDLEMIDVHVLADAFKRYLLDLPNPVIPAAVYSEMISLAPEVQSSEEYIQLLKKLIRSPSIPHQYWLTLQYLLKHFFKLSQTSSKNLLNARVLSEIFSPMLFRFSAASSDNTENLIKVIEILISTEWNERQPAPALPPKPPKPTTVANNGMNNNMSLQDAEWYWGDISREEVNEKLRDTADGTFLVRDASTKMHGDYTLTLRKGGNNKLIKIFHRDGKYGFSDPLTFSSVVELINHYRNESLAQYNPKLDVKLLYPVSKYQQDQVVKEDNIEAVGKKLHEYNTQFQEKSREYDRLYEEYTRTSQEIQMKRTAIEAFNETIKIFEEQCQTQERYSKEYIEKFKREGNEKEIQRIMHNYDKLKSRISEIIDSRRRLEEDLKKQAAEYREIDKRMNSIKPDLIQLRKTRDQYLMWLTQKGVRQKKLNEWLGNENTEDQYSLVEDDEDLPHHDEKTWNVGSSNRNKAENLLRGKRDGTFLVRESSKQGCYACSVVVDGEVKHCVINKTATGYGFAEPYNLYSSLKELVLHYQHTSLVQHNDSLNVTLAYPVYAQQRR

Structure (SMILES) | IC50 ([1]; Soy PI lipid substrate) [µM] | IC50 ([2]; Soy PI lipid substrate) [µM] | IC50 [1, 3] [µM] | IC50 [2, 3] [µM]
Cc1cc(C(C)Nc2ccccc2C(=O)O)c2oc(-c3ccc(S(C)(=O)=O)cc3)cc(=O)c2c1 (single isomer, unassigned; isomer 1) [Example 47, 2-[1-[6-Methyl-2-(4-methylsulfonylphenyl)-4-oxo-chromen-8-yl]ethylamino]benzoic acid, Isomer 1] | > 10 | > 10 | – | –
Cc1cc(C(C)Nc2ccccc2C(=O)O)c2oc(-c3ccc(C(=O)N(C)C)cc3)cc(=O)c2c1 (single isomer, unassigned; isomer 1) [Example 49, 2-[1-[2-[4-(Dimethylcarbamoyl)-phenyl]-6-methyl-4-oxo-chromen-8-yl]ethylamino]benzoic acid, Isomer 1] | 5 to 10 | < 0.5 | – | –
Cc1cc(C(C)Nc2ccccc2C(=O)O)c2oc(-c3ccc(N4CCCC4)cc3)cc(=O)c2c1 (single isomer, unassigned; isomer 1) [Example 54, 2-[1-[6-Methyl-4-oxo-2-(4-pyrrolidin-1-ylphenyl)chromen-8-yl]ethylamino]benzoic acid, Isomer 1] | > 10 | 0.5 to 1 | – | –
Cc1cc(C(C)Nc2ccccc2C(=O)O)c2oc(-c3ccccc3)c(C#N)c(=O)c2c1 (single isomer, unassigned; isomer 1) [Example 61, 2-[1-(3-Cyano-6-methyl-4-oxo-2-phenyl-chromen-8-yl)ethylamino]benzoic acid, Isomer 1] | > 10 | > 10 | – | –
CC(Nc1ccccc1C(=O)O)c1cc(C(F)(F)F)cc2c(=O)cc(-c3ccccc3)oc12 (single isomer, unassigned; isomer 1) [Example 86, 2-[1-[4-Oxo-2-phenyl-6-(trifluoromethyl)-chromen-8-yl]ethylamino]benzoic acid, Isomer 1] | 5 to 10 | > 10 | – | –
Cc1cc(C(C)Nc2cccc(F)c2C(=O)O)c2oc(-c3ccccc3F)c(C)c(=O)c2c1 (single isomer, unassigned; isomer 1) [Example 103, 2-Fluoro-6-[1-[2-(2-fluorophenyl)-3,6-dimethyl-4-oxo-chromen-8-yl]ethylamino]benzoic acid, Isomer 1] | < 0.5 | < 0.5 | – | –
Cc1cc(C(C)Nc2cccc(F)c2C(=O)O)c2oc(-c3ccccc3F)cc(=O)c2c1 (single isomer, unassigned; isomer 1) [Example 107, 2-Fluoro-6-[1-[2-(2-fluorophenyl)-6-methyl-4-oxo-chromen-8-yl]ethylamino]benzoic acid, Isomer 1] | 1 to 5 | < 0.5 | – | –
Cc1cc(C(C)Nc2ccccc2C(=O)O)c2oc(-c3cccc(C(C)(C)C#N)c3)cc(=O)c2c1 (single isomer, unassigned; isomer 2) [Example 5, 2-[1-[2-[3-(1-Cyano-1-methyl-ethyl)phenyl]-6-methyl-4-oxo-chromen-8-yl]ethylamino]benzoic acid, Isomer 2] | > 10 | < 0.5 | – | –
Cc1cc(C(C)Nc2ccccc2C(=O)O)c2oc(-c3ccc(S(C)(=O)=O)cc3)cc(=O)c2c1 (single isomer, unassigned; isomer 2) [Example 48, 2-[1-[6-Methyl-2-(4-methylsulfonylphenyl)-4-oxo-chromen-8-yl]ethylamino]benzoic acid, Isomer 2] | > 10 | < 0.5 | – | –
Cc1cc(C(C)Nc2ccccc2C(=O)O)c2oc(-c3ccc(C4(C#N)CC4)cc3)cc(=O)c2c1 (single isomer, unassigned; isomer 2) [Example 53, 2-[1-[2-[4-(1-Cyanocyclopropyl)-phenyl]-6-methyl-4-oxo-chromen-8-yl]ethylamino]benzoic acid, Isomer 2] | 1 to 5 | < 0.5 | – | –
CC(Nc1ccccc1C(=O)O)c1cc(C(F)(F)F)cc2c(=O)cc(-c3ccccc3)oc12 (single isomer, unassigned; isomer 2) [Example 87, 2-[1-[4-Oxo-2-phenyl-6-(trifluoromethyl)-chromen-8-yl]ethylamino]benzoic acid, Isomer 2] | 5 to 10 | < 0.5 | – | –
Cc1cc(C(C)Nc2ccc(Cl)nc2C(=O)O)c2oc(-c3ccccc3)c(I)c(=O)c2c1 (single isomer, unassigned; isomer 2) [Example 154, 6-Chloro-3-[1-(3-iodo-6-methyl-4-oxo-2-phenyl-chromen-8-yl)ethylamino]pyridine-2-carboxylic acid, Isomer 2] | 0.5 to 1 | < 0.5 | – | –
Cc1cc(C(C)Nc2ccc(Cl)nc2C(=O)O)c2oc(-c3ccccc3)c(I)c(=O)c2c1 (single isomer, unassigned; isomer i) [Example 153, 6-Chloro-3-[1-(3-iodo-6-methyl-4-oxo-2-phenyl-chromen-8-yl)ethylamino]pyridine-2-carboxylic acid, Isomer I] | 1 to 5 | 1 to 5 | – | –
Cc1cc([C@@H](C)Nc2ccc(Cl)nc2C(=O)O)c2oc(-c3ccccc3)cc(=O)c2c1 [Example 2, 6-Chloro-3-[[(1R)-1-(6-methyl-4-oxo-2-phenyl-chromen-8-yl)ethyl]amino]pyridine-2-carboxylic acid] | < 0.5 | < 0.5 | – | –
Cc1cc(C(C)Nc2ccccc2C(=O)O)c2oc(-c3cccc(C(C)(C)C#N)c3)cc(=O)c2c1 (stereo not shown) [Example 3, 2-[1-[2-[3-(1-Cyano-1-methyl-ethyl)phenyl]-6-methyl-4-oxo-chromen-8-yl]ethylamino]benzoic acid 2,2,2-trifluoroacetic acid] | 5 to 10 | < 0.5 | – | –
CC(Nc1ccccc1C(=O)O)c1c(F)c(F)cc2c(=O)cc(-c3ccccc3)oc12 (stereo not shown) [Example 6, 2-[1-(6,7-Difluoro-4-oxo-2-phenyl-chromen-8-yl)ethylamino]benzoic acid 2,2,2-trifluoroacetic acid] | – | – | 1 to 5 | < 0.5
Cc1cc(C(C)Nc2ccccc2C(=O)O)c2oc(-c3ccc(C4(C#N)CC4)cc3)cc(=O)c2c1 (stereo not shown) [Example 7, 2-[1-[2-[4-(1-Cyanocyclopropyl)-phenyl]-6-methyl-4-oxo-chromen-8-yl]ethylamino]benzoic acid] | – | – | 0.5 to 1 | < 0.5
Cc1cc(C(C)Nc2ccccc2C(=O)O)c2oc(-c3ccc(C(=O)N(C)C)cc3)cc(=O)c2c1 (stereo not shown) [Example 8, 2-[1-[2-[4-(Dimethylcarbamoyl)-phenyl]-6-methyl-4-oxo-chromen-8-yl]ethylamino]benzoic acid 2,2,2-trifluoroacetic acid] | > 10 | < 0.5 | – | –
Cc1cc(C(C)Nc2ccccc2C(=O)O)c2oc(-c3ccc(S(C)(=O)=O)cc3)cc(=O)c2c1 (stereo not shown) [Example 9, 2-[1-[6-Methyl-2-(4-methylsulfonylphenyl)-4-oxo-chromen-8-yl]ethylamino]benzoic acid 2,2,2-trifluoroacetic acid] | > 10 | < 0.5 | – | –
Cc1cc(C(C)Nc2ccccc2C(=O)O)c2oc(-c3ccccc3)c(C#N)c(=O)c2c1 (stereo not shown) [Example 10, 2-[1-(3-Cyano-6-methyl-4-oxo-2-phenyl-chromen-8-yl)ethylamino]benzoic acid 2,2,2-trifluoroacetic acid] | 1 to 5 | < 0.5 | – | –

From patent US11873295B2, “Allosteric chromenone inhibitors of phosphoinositide 3-kinase (PI3K) for the treatment of disease” (Petra Pharma Corporation, priority 2021, dated 2024)
